Test system: Helicobacter pylori
Assay: Inhibition of H. pylori growth on LB/sheep blood agar plates containing DSW extract
Type: cell-based, Helicobacter pylori (ten samples from different patients)
Conditions: same concentration of magnesium ions as the DSW extract (MgCl2 285 and 570 mg/L)
Text: The present invention validates that the active components of the deep sea water extract having ability of inhibiting H. pylori growth are not associated with high magnesium, calcium ions and high hardness. […] Also, the present invention uses mass spectrometry to show a relational graph between the intensity value of the 1,070 component of the DSW extract and inhibiting H. pylori growth rate. In one embodiment, prepare the LB agar having the DSW extract with different hardness, the DSW extract with different concentration of EDTA or different concentration of MgCl2, follow by filtration through the 0.22 μm filter membrane or sterilization in an autoclave. Mix the LB agar with sheep blood, and pour the mixture into each 9-cm culture plate. Let each plate cool until its solid to form agar plate. For the LB agar having different concentration of MgCl2, take 2.85 mg MgCl2, add other nutrients and water to make 10 mL agar plate, the agar plate contains 285 mg/L MgCl2. According to above-mentioned procedure, the agar plats having different concentration of MgCl2 are 285 mg/L and 570 mg/L. The present invention also prepares the LB agar having the DSW extract with 1,200 ppm to 6,000 ppm and the 2,400 ppm DSW extract with different concentration of EDTA. The present invention identifies the active components of the DSW extract having the ability of inhibiting H. pylori growth. […]

[Cl-].[Cl-].[Mg+2] [magnesium ions, MgCl2]
ability of inhibiting H. pylori growth: does not have the ability of inhibiting H. pylori growth

Reference: patent US10617719B2, “Deep sea water extract and use thereof” (Taiwan DOW Biotech Co., Ltd., priority 2015, dated 2020)
